This is an account of results in PubChem BioAssay (NCI).

Test systems include SF-539 CNS; COLO 205 colon; HS 578T breast; BT-549 breast; DU-145 prostate; A498 renal; SNB-19 CNS; SW-620 colon; 786-0 renal; T-47D breast.
Assay in all cases: inhibition of tumour cell growth, NCI panel, 48 h

SMILES strings stand for the structures.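 Following 48 hours of exposure in 96-well plates, responses at five concentrations were used to interpolate endpoints linearly. TGI marks complete inhibition of growth.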

For the compound `CC1(CC(=O)OC(C#C[Si](C)(C)C)Cc2ccccc2)OCCO1` (stereo not given), the TGI with SF-539 CNS, in the test on COLO 205 colon, with HS 578T breast, in the test with BT-549 breast, with DU-145 prostate and in the test with A498 renal was > 100 µM each time. The TGI in the test with SNB-19 CNS, in the test with SW-620 colon, with 786-0 renal and in the test on T-47D breast was > 100 µM in each case.

As to `O=C1/C(=C/c2ccc(O)cc2)CCc2ccccc21`, the TGI in the test on SF-539 CNS is 38.4 µM; in the test on COLO 205 colon it was 40.5 µM; in the test with HS 578T breast, 94.3 µM; with BT-549 breast, 41.4 µM; with DU-145 prostate, 64.9 µM; with A498 renal, 44.5 µM. The TGI in the test on SNB-19 CNS was 50.7 µM; in the test on SW-620 colon it was 40.1 µM; in the test on 786-0 renal, 39.1 µM; with T-47D breast it was > 100 µM.

With `Clc1ccc(-c2cc(-c3nc4ccccc4[nH]3)no2)cc1`, the TGI with SF-539 CNS is 74.3 µM; with COLO 205 colon, 41.8 µM; in the test on HS 578T breast, 79.7 µM; with BT-549 breast, 45.5 µM; in the test on DU-145 prostate it was 24.6 µM; in the test on A498 renal it was 47.5 µM. Further, the TGI is 36 µM with SNB-19 CNS, 46.5 µM in the test on SW-620 colon, 59 µM in the test with 786-0 renal and 37.7 µM with T-47D breast.

With `O=c1[nH][nH]c(=S)c(=O)[nH]1`, the TGI in the test with SF-539 CNS, with COLO 205 colon, in the test with HS 578T breast, in the test on BT-549 breast, with DU-145 prostate and in the test on A498 renal was > 100 µM in each case. The TGI in the test with SNB-19 CNS, in the test with SW-620 colon, with 786-0 renal and with T-47D breast was > 100 µM throughout.
